“And” between values parts separate entries of the source, which are not always exact repeats. Identical values can stand only once. Like-named read-outs stand apart in the source and are kept apart here.
What was measured:
12-lipoxygenase = target: T1, 12-lipoxygenase (Rattus norvegicus, UniProt F1LQ70); assay: 12-lipoxygenase inhibition assay (rat platelet supernatant, arachidonic acid, HPLC of 12-HETE); assay type: biochemical, Sprague Dawley male rat (platelets); conditions: for maximum inhibition ratio of 12-lipoxygenase / inhibition at 10 µM: at a compound concentration of 10^-5 M, IC50 not obtained; for maximum inhibition ratio of 12-lipoxygenase: 10 µM; for inhibition at 10 µM: read-out: maximum inhibition ratio of 12-lipoxygenase
T1 construct: The platelets were then sonicated at 4° C. and centrifuged at 100,000×g for 30 minutes to obtain a supernatant as a 12-lipoxygenase enzyme solution; from tissue; host or cells: Sprague Dawley rat platelets (from aortic blood), sonicated, 100,000 x g supernatant
T1 sequence (F1LQ70 1-663): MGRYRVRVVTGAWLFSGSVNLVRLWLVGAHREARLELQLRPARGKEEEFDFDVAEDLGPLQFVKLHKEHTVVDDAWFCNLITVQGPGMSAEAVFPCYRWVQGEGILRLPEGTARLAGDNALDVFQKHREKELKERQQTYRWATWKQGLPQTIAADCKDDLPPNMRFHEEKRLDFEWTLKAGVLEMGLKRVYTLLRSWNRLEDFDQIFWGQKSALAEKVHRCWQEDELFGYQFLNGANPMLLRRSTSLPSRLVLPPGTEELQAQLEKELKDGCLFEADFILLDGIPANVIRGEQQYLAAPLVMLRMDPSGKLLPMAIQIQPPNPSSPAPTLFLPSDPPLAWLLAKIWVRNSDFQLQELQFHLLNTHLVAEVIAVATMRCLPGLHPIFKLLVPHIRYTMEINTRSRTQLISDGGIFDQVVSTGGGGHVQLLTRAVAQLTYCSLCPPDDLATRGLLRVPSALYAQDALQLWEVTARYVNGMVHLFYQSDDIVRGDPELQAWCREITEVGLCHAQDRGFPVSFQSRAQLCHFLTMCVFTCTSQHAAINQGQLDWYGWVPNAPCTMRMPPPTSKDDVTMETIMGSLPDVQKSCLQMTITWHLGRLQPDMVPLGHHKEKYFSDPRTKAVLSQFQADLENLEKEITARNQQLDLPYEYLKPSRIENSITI
Protocol: A Sprague Dawley male rat was anesthetized with ether and bled from abdominal aorta using a syringe filled with about one-tenth volume of 3.8% sodium citrate. Blood was centrifuged at 180×g for 15 minutes at room temperature to pellet sanguineous platelet blood plasma. The resultant supernatant was again centrifuged at 1800×g for 10 minutes at 4° C. The pelleted platelets were rinsed twice with a washing buffer (50 mM Tris-hydrochloric acid buffer containing 154 mM sodium chloride and 2 mM EDTA, pH: 7.4). The platelets were then suspended in one-twentieth volume of a resuspension buffer (50 mM Tris-hydrochloric acid buffer containing 154 mM sodium chloride and 5.5 mM glucose, pH: 7.4). The platelets were then sonicated at 4° C. and centrifuged at 100,000×g for 30 minutes to obtain a supernatant as a 12-lipoxygenase enzyme solution.
The enzyme solution described above was diluted with the resuspension buffer above mentioned to prepare an assay solution so as to include about 2 mU/ml of 12-lipoxygenase. To an aliquot (300 μl) of the assay solution was added 1 μl of a 3 mM indomethacin-ethanol solution, 1 μl of an aqueous 300 mM reduced-glutathione solution, and 3 μl of varied concentrated test compounds solution in ethanol. The resultant mixture was incubated at 37° C. for 5 minutes. Subsequently, 3 μl of a 2.5 mM arachidonic acid solution in ethanol was added to incubate with for another 5 minutes at 37° C., then the reaction was ceased by the addition of 600 μl of methanol. After being centrifuged at 10,000×g for 5 minutes, 12-hydroxyeicosatetraenoic acid recovered in the supernatant was separated with a reverse phase high-performance liquid chromatography equipped with a C-18 column and measured the absorption of diene at 234 nm to quantify the activity of 12-lipoxygenase.
As test compounds were used the compounds of the present invention prepared in the same methods as in Example 4, Example 5 and Example 8 and the compounds prepared in the same methods as in Comparative Examples 1-5, and as a control was used esculetin (purchased from Tokyo Kasei), a known compound represented by the following formula: [drawing 33] and the test was conducted at varied concentrations.
The enzyme solution was prepared according to the same manner as in Test Example 1.
The inhibition assay was performed according to the same method as described in Test Example 1 except that the same samples used in measurement of the 5-lipoxygensase activity were used to estimate IC50 values. […]
They were measured in the same method as in Test Example 1.

5-lipoxygenase = target: T2, 5-lipoxygenase (Rattus norvegicus, UniProt P12527); assay: 5-lipoxygenase inhibition assay (RBL-1 supernatant, arachidonic acid, HPLC of 5-HETE); assay type: biochemical, rat (basophilic leukemia cells RBL-1, ATCC CRL1378)
T2 construct: host or cells: RBL-1 (rat basophilic leukemia cells)
T2 sequence (P12527 1-673): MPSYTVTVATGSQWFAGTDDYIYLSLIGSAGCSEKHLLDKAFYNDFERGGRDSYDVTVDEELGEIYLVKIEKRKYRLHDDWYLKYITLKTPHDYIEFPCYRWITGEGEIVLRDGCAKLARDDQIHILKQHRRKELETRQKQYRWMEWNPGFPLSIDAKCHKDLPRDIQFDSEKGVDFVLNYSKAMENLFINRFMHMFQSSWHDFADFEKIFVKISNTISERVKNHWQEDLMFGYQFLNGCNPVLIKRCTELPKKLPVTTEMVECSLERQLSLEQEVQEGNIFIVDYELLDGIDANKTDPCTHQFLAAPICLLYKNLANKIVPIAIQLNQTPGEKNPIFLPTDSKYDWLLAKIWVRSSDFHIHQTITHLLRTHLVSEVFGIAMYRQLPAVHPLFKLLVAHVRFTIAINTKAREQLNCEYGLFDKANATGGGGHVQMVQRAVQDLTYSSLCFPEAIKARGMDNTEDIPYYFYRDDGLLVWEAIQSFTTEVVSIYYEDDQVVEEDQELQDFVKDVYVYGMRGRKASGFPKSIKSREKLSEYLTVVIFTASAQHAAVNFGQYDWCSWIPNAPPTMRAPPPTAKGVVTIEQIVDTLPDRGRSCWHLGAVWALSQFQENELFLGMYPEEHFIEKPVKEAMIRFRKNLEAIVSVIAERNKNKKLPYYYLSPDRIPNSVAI
Protocol: Rat basophilic leukemia cells (RBL-1, ATCC CRL1378) were cultured in Dulbecco modified Eagle's medium containing 10% new-born bovine serum.
Cultured cells were collected and washed twice with a 50 mM Tris-buffered saline (containing 154 mM sodium chloride, pH: 7.4, hereinafter described as TBS). The cell suspension (4×10^7 cells/ml) was then sonicated and centrifuged at 10,000×g for 10 minutes.
The resultant supernatant was used to prepare an assay solution.
To an aliquot (15 μl) of the enzyme solution (40 mU/ml equivalent) was added 185 μl of TBS, 50 μl of a 2 mM adenosine triphosphate in TBS, 50 μl of a 12 mM calcium chloride in TBS, 1 μl of a 3 mM indomethacin in ethanol solution, 1 μl of an aqueous 300 mM reduced glutathione solution, and 3 μl of varied concentrated test compounds solution in ethanol. The resultant mixture was incubated at 37° C. for 5 minutes. Subsequently, 3 μl of a 2.5 mM arachidonic acid solution in ethanol was added to incubate the mixture for 2 minutes at 37° C. The reaction was ceased by the addition of 600 μl of methanol. After being centrifuged at 10,000×g for 5 minutes, 5-hydroxyeicosatetraenoic acid recovered in the supernatant was separated with a reverse phase high-performance liquid chromatography equipped with a C-18 column and measured the absorption of diene at 234 nm to quantify the activity of the enzyme.
Using the compounds of the present invention prepared in the same manner as in Examples 1-30, and Examples 33-36 as test samples and known baicalein (purchased from Wako Junyaku Kogyo) represented by the following formula 30 as a control: [drawing 34] the tests were performed for dose dependent inhibition to estimate IC50 values
It was prepared in the same method as in Test Example 2.
They were measured in the same method as in Test Example 2.

[1] = Test Example 2, Table 2, read-out: IC50 value of 12-lipoxygenase
[2] = Test Example 2, Table 2, read-out: IC50 value of 5-lipoxygenase
[3] = Test Example 1, Table 1 and text, read-out: 12-lipoxygenase IC50 value
[4] = Test Example 3, Table 11, value belongs to the deacylated compound, read-out: 12-lipoxygenase inhibiting activities of deacylated compounds (IC50 values)
[5] = Test Example 5, Table 22, read-out: 12-Lipoxygenase inhibiting activity IC50 value
[6] = Test Example 5, Table 22, read-out: 5-Lipoxygenase inhibiting activity IC50 value

O=c1oc2cc(O)c(O)cc2cc1-c1ccsc1 [Example 16]
IC50 (12-lipoxygenase; [1]): 22 nM | IC50 (5-lipoxygenase; [2]): 420 nM

COc1ccc2cc(-c3ccccc3)c(=O)oc2c1OC [Comp. Example 1, reference compound]
maximum inhibition ratio of 12-lipoxygenase (12-lipoxygenase; listed as Comparative Example 1, 10 µM): less than 10% | inhibition at 10 µM (12-lipoxygenase): 5%

Cc1c(-c2ccc(Cl)cc2)c(=O)oc2cc(O)c(O)cc12 [Example 5, 3-(4-chlorophenyl)-4-methyl-6,7-dihydroxycoumarin]
IC50 (12-lipoxygenase; [3]): 9.2 nM | IC50 (12-lipoxygenase; [1]): 9.2 nM | IC50 (12-lipoxygenase; [4]): 9.2 nM | IC50 (5-lipoxygenase; [2]): 410 nM

O=c1oc2c(O)c(O)ccc2cc1-c1csc2ccccc12 [Example 63]
IC50 (12-lipoxygenase; [5]): 11 nM | IC50 (5-lipoxygenase; [6]): 190 nM

O=c1oc2cc(O)c(O)cc2cc1-c1cccs1 [Example 15, 3-(thiophen-2-yl)-6,7-dihydroxycoumarin]
IC50 (12-lipoxygenase; [1]): 21 nM | IC50 (5-lipoxygenase; [2]): 330 nM

O=c1oc2c(O)c(O)ccc2cc1-c1ccc(O)cc1 [Comp. Example 5, reference compound]
12-lipoxygenase inhibitory activity (in words) (12-lipoxygenase): decreases greatly | IC50 (12-lipoxygenase; [3]): 1100 nM

O=c1oc2c(O)c(O)ccc2cc1-c1ccc(Br)cc1 [Example 25, 3-(4-bromophenyl)-7,8-dihydroxycoumarin]
IC50 (12-lipoxygenase; [1]): 13 nM | IC50 (5-lipoxygenase; [2]): 420 nM

O=c1oc2c(O)c(O)ccc2cc1-c1ccc(Cl)cc1 [Example 4, 3-(4-chlorophenyl)-7,8-dihydroxycoumarin]
IC50 (12-lipoxygenase; [3]): 7.6 nM and ~1 nM | IC50 (12-lipoxygenase; [1]): 7.6 nM | IC50 (12-lipoxygenase; [4]): 7.6 nM | IC50 (5-lipoxygenase; [2]): 480 nM

O=c1oc2cc(O)c(O)cc2cc1-c1ccc(Cl)cc1 [Example 8, 3-(4-chlorophenyl)-6,7-dihydroxycoumarin]
IC50 (12-lipoxygenase; [3]): 7 nM and ~1 nM | IC50 (12-lipoxygenase; [1]): 7 nM | IC50 (12-lipoxygenase; [4]): 7 nM | IC50 (5-lipoxygenase; [2]): 260 nM

O=c1oc2cc(O)c(O)cc2cc1-c1csc2ccccc12 [Example 64]
IC50 (12-lipoxygenase; [5]): 10 nM | IC50 (5-lipoxygenase; [6]): 180 nM

O=c1oc2cc(O)c(O)cc2cc1-c1ccc(I)cc1 [Example 10, 3-(4-iodophenyl)-6,7-dihydroxycoumarin]
IC50 (12-lipoxygenase; [1]): 5.8 nM | IC50 (12-lipoxygenase; [4]): 5.8 nM | IC50 (5-lipoxygenase; [2]): 140 nM

O=c1oc2c(O)c(O)ccc2c(-c2ccccc2)c1-c1ccccc1 [Comp. Example 4, reference compound]
IC50 (12-lipoxygenase; [3]): 120 nM

Cc1ccc(-c2cc3cc(O)c(O)cc3oc2=O)o1 [Example 36, 3-(5-methylfuran-2-yl)-6,7-dihydroxycoumarin]
IC50 (12-lipoxygenase; [1]): 14 nM | IC50 (5-lipoxygenase; [2]): 250 nM

Cc1cccc(-c2cc3cc(O)c(O)cc3oc2=O)c1 [Example 12]
IC50 (12-lipoxygenase; [1]): 11 nM | IC50 (5-lipoxygenase; [2]): 280 nM

O=c1oc2cc(O)c(O)cc2cc1-c1ccc(C(F)(F)F)cc1 [Example 14, 3-(4-trifluoromethylphenyl)-6,7-dihydroxycoumarin]
IC50 (12-lipoxygenase; [1]): 13 nM | IC50 (5-lipoxygenase; [2]): 270 nM

O=c1oc2cc(O)c(O)cc2cc1-c1ccc(F)cc1 [Example 7]
IC50 (12-lipoxygenase; [1]): 8 nM | IC50 (5-lipoxygenase; [2]): 400 nM

O=c1oc2c(O)c(O)ccc2cc1-c1ccc([N+](=O)[O-])cc1 [Example 23, 3-(4-nitrophenyl)-7,8-dihydroxycoumarin]
IC50 (12-lipoxygenase; [1]): 34 nM | IC50 (5-lipoxygenase; [2]): 530 nM

O=c1oc2cc(O)ccc2cc1-c1ccc(Cl)cc1 [Comp. Example 2, reference compound]
maximum inhibition ratio of 12-lipoxygenase (12-lipoxygenase; listed as Comparative Example 2, 10 µM): less than 10% | inhibition at 10 µM (12-lipoxygenase): 7%

O=c1oc2cc(O)c(O)cc2cc1-c1cc(Br)cs1 [Example 34, 3-(4-bromothiophen-2-yl)-6,7-dihydroxycoumarin]
IC50 (12-lipoxygenase; [1]): 5.2 nM | IC50 (12-lipoxygenase; [4]): 5.2 nM | IC50 (5-lipoxygenase; [2]): 150 nM

O=c1oc2c(O)c(O)ccc2cc1-c1cc(Br)cs1 [Example 33, 3-(4-bromothiophen-2-yl)-7,8-dihydroxycoumarin]
IC50 (12-lipoxygenase; [1]): 12 nM | IC50 (5-lipoxygenase; [2]): 360 nM

O=c1oc2cc(O)c(O)cc2cc1-c1cccc(Cl)c1 [Example 9, 3-(3-chlorophenyl)-6,7-dihydroxycoumarin]
IC50 (12-lipoxygenase; [1]): 4.3 nM | IC50 (12-lipoxygenase; [4]): 4.3 nM | IC50 (5-lipoxygenase; [2]): 160 nM

O=c1oc2cc(O)c(O)cc2cc1-c1ccc(Br)cc1 [Example 1]
IC50 (12-lipoxygenase; [1]): 4.4 nM | IC50 (5-lipoxygenase; [2]): 190 nM

O=c1oc2cc(O)c(O)cc2cc1-c1ccc2ccccc2c1 [Example 62]
IC50 (12-lipoxygenase; [5]): 4.6 nM | IC50 (5-lipoxygenase; [6]): 65 nM

Cc1ccc(-c2cc3cc(O)c(O)cc3oc2=O)cc1 [Example 11]
IC50 (12-lipoxygenase; [1]): 11 nM | IC50 (5-lipoxygenase; [2]): 180 nM

CCc1ccc(-c2cc3ccc(O)c(O)c3oc2=O)cc1 [Example 19]
IC50 (12-lipoxygenase; [1]): 14 nM | IC50 (5-lipoxygenase; [2]): 250 nM

O=c1oc2cc(O)c(O)cc2cc1-c1ccccc1 [Example 6, 3-phenyl-6,7-dihydroxycoumarin]
IC50 (12-lipoxygenase; [1]): 16 nM | IC50 (5-lipoxygenase; [2]): 270 nM

From US5574062A, “Coumarin derivative and use thereof” (Morinaga Milk Industry Co., Ltd., priority 1993, dated 1996)
